# In ChEMBL document CHEMBL3885881, “DrugMatrix”:
# Organism: Rattus norvegicus
# Assay: DrugMatrix - Regimen: Daily Repeat
# Format: toxicity, organism-based, Sprague-Dawley
# Set-up: regimen Daily Repeat, gender Male, age 6-8 weeks
# Conditions: in vivo, po, route oral GAVAGE, vehicle 100 % WATER; for ABSOLUTE BASOPHIL / ABSOLUTE EOSINOPHIL / ABSOLUTE LYMPHOCYTE / ABSOLUTE MONOCYTE / ABSOLUTE SEGMENTED NEUTROPHIL / BASOPHIL / EOSINOPHIL / ERYTHROCYTE COUNT / HEMATOCRIT / HEMOGLOBIN / LEUKOCYTE COUNT / LYMPHOCYTE / MEAN CORPUSCULAR HEMOGLOBIN / MEAN CORPUSCULAR HEMOGLOBIN CONCENTRATION / MEAN CORPUSCULAR VOLUME / MONOCYTE / NEUTROPHIL / NUCLEATED RED BLOOD CELLS / PLATELET COUNT: tissue Blood; for ALANINE AMINOTRANSFERASE / ALBUMIN / ALKALINE PHOSPHATASE / ASPARTATE AMINOTRANSFERASE / BLOOD UREA NITROGEN / CARBON DIOXIDE / CHLORIDE / CHOLESTEROL / CREATINE PHOSPHOKINASE / CREATININE / GLUCOSE / LACTATE DEHYDROGENASE / LIPASE / PHOSPHORUS / POTASSIUM / SODIUM / TOTAL BILIRUBIN / TOTAL PROTEIN / URIC ACID: tissue Plasma
# [1] = 2 mg/kg, 120 h, dose level Low, time 5 day
# [2] = 2000 mg/kg, 72 h, dose level High, time 3 day
# [3] = 2000 mg/kg, 120 h, dose level High, time 5 day
structure (smiles),measurement,setting,value
CC(C)(C)c1ccc(C(=O)CCCN2CCC(OC(c3ccccc3)c3ccccc3)CC2)cc1 [EBASTINE],ABSOLUTE BASOPHIL,[1],0 CELLS/uL
same,ABSOLUTE EOSINOPHIL,[1],268.33 CELLS/uL
same,ABSOLUTE LYMPHOCYTE,[1],11875.67 CELLS/uL
same,ABSOLUTE MONOCYTE,[1],285.33 CELLS/uL
same,ABSOLUTE SEGMENTED NEUTROPHIL,[1],1837.33 CELLS/uL
same,BASOPHIL,[1],0%
same,EOSINOPHIL,[1],1.67%
same,ERYTHROCYTE COUNT,[1],5.47 x10E6/uL
same,HEMATOCRIT,[1],34.03%
same,HEMOGLOBIN,[1],13.83 G/DL
same,LEUKOCYTE COUNT,[1],14.27 x10E3/uL
same,LYMPHOCYTE,[1],83.33%
same,MEAN CORPUSCULAR HEMOGLOBIN,[1],25.3 pg
same,MEAN CORPUSCULAR HEMOGLOBIN CONCENTRATION,[1],40.67 G/DL
same,MEAN CORPUSCULAR VOLUME,[1],62.27 fL
same,MONOCYTE,[1],2%
same,NEUTROPHIL,[1],13%
same,NUCLEATED RED BLOOD CELLS,[1],0 /100WBC
same,PLATELET COUNT,[1],1267.33 x10E3/uL
same,ALANINE AMINOTRANSFERASE,[1],45.33 u/L
same,ALBUMIN,[1],4.3 G/DL
same,ALKALINE PHOSPHATASE,[1],377.33 u/L
same,ASPARTATE AMINOTRANSFERASE,[1],74 u/L
same,BLOOD UREA NITROGEN,[1],15.67 mg/dL
same,CARBON DIOXIDE,[1],27.33 mmol/L
same,CHLORIDE,[1],101 MEQ/L
same,CHOLESTEROL,[1],75 mg/dL
same,CREATINE PHOSPHOKINASE,[1],212.67 u/L
same,CREATININE,[1],0.24 mg/dL
same,GLUCOSE,[1],160.33 mg/dL
same,LACTATE DEHYDROGENASE,[1],207.67 u/L
same,LIPASE,[1],10 u/L
same,PHOSPHORUS,[1],12.17 mg/dL
same,POTASSIUM,[1],6.8 MEQ/L
same,SODIUM,[1],140.47 MEQ/L
same,TOTAL BILIRUBIN,[1],0.2 mg/dL
same,TOTAL PROTEIN,[1],5.9 G/DL
same,URIC ACID,[1],1.87 mg/dL
same,ABSOLUTE BASOPHIL,[2],0 CELLS/uL
same,ABSOLUTE EOSINOPHIL,[2],34.67 CELLS/uL
same,ABSOLUTE LYMPHOCYTE,[2],11326.67 CELLS/uL
same,ABSOLUTE MONOCYTE,[2],253 CELLS/uL
same,ABSOLUTE SEGMENTED NEUTROPHIL,[2],2019 CELLS/uL
same,BASOPHIL,[2],0%
same,EOSINOPHIL,[2],0.33%
same,ERYTHROCYTE COUNT,[2],6 x10E6/uL
same,HEMATOCRIT,[2],36.1%
same,HEMOGLOBIN,[2],14.77 G/DL
same,LEUKOCYTE COUNT,[2],13.63 x10E3/uL
same,LYMPHOCYTE,[2],83%
same,MEAN CORPUSCULAR HEMOGLOBIN,[2],24.63 pg
same,MEAN CORPUSCULAR HEMOGLOBIN CONCENTRATION,[2],40.9 G/DL
same,MEAN CORPUSCULAR VOLUME,[2],60.27 fL
same,MONOCYTE,[2],1.67%
same,NEUTROPHIL,[2],15%
same,NUCLEATED RED BLOOD CELLS,[2],0.33 /100WBC
same,PLATELET COUNT,[2],1204 x10E3/uL
same,ALANINE AMINOTRANSFERASE,[2],96.33 u/L
same,ALBUMIN,[2],3.67 G/DL
same,ALKALINE PHOSPHATASE,[2],316 u/L
same,ASPARTATE AMINOTRANSFERASE,[2],119.67 u/L
same,BLOOD UREA NITROGEN,[2],13.67 mg/dL
same,CARBON DIOXIDE,[2],23.67 mmol/L
same,CHLORIDE,[2],103.67 MEQ/L
same,CHOLESTEROL,[2],57.33 mg/dL
same,CREATINE PHOSPHOKINASE,[2],1102 u/L
same,CREATININE,[2],0.21 mg/dL
same,GLUCOSE,[2],195 mg/dL
same,LACTATE DEHYDROGENASE,[2],227 u/L
same,LIPASE,[2],8.67 u/L
same,PHOSPHORUS,[2],11.03 mg/dL
same,POTASSIUM,[2],4.81 MEQ/L
same,SODIUM,[2],144.03 MEQ/L
same,TOTAL BILIRUBIN,[2],0.1 mg/dL
same,TOTAL PROTEIN,[2],5.2 G/DL
same,URIC ACID,[2],1.47 mg/dL
same,ABSOLUTE BASOPHIL,[3],0 CELLS/uL
same,ABSOLUTE EOSINOPHIL,[3],0 CELLS/uL
same,ABSOLUTE LYMPHOCYTE,[3],11532 CELLS/uL
same,ABSOLUTE MONOCYTE,[3],384.67 CELLS/uL
same,ABSOLUTE SEGMENTED NEUTROPHIL,[3],2350 CELLS/uL
same,BASOPHIL,[3],0%
same,EOSINOPHIL,[3],0%
same,ERYTHROCYTE COUNT,[3],6.72 x10E6/uL
same,HEMATOCRIT,[3],41.1%
same,HEMOGLOBIN,[3],16.37 G/DL
same,LEUKOCYTE COUNT,[3],14.27 x10E3/uL
same,LYMPHOCYTE,[3],79.67%
same,MEAN CORPUSCULAR HEMOGLOBIN,[3],24.4 pg
same,MEAN CORPUSCULAR HEMOGLOBIN CONCENTRATION,[3],39.83 G/DL
same,MEAN CORPUSCULAR VOLUME,[3],61.3 fL
same,MONOCYTE,[3],3%
same,NEUTROPHIL,[3],17.33%
same,NUCLEATED RED BLOOD CELLS,[3],0 /100WBC
same,PLATELET COUNT,[3],1272.67 x10E3/uL
same,ALANINE AMINOTRANSFERASE,[3],120.67 u/L
same,ALBUMIN,[3],3.9 G/DL
same,ALKALINE PHOSPHATASE,[3],248 u/L
same,ASPARTATE AMINOTRANSFERASE,[3],112.33 u/L
same,BLOOD UREA NITROGEN,[3],16.33 mg/dL
same,CARBON DIOXIDE,[3],28 mmol/L
same,CHLORIDE,[3],105.67 MEQ/L
same,CHOLESTEROL,[3],47 mg/dL
same,CREATINE PHOSPHOKINASE,[3],523 u/L
same,CREATININE,[3],0.22 mg/dL
same,GLUCOSE,[3],151 mg/dL
same,LACTATE DEHYDROGENASE,[3],262.67 u/L
same,LIPASE,[3],8 u/L
same,PHOSPHORUS,[3],10.77 mg/dL
same,POTASSIUM,[3],4.79 MEQ/L
same,SODIUM,[3],145.73 MEQ/L
same,TOTAL BILIRUBIN,[3],0.13 mg/dL
same,TOTAL PROTEIN,[3],5.13 G/DL
same,URIC ACID,[3],1.23 mg/dL
